Data as given in patent US20060004029A1, “Nitrogen-containing aromatic derivatives” (priority 2003, published 2006).

System: KP-1/VEGF human pancreatic cancer cells
Assay: In vivo angiogenesis-inducing activity using mouse dorsal air sac model
Conditions: oral, once a day, C57BL/6N female mice, 4th day
Method: PCR was conducted using a human placenta cDNA library (Toyobo Co., Ltd.) as the template and the SEQ ID NO:1 (5′[…]3′) and SEQ ID NO:2 (5′[…]3′) of VEGF as primers. After completion of the PCR reaction, the 5′ ends were phosphorylated and an approximately 600 bp DNA band was separated by 1.2% agarose gel electrophoresis. After polymerization by self-ligation, the cDNA was cut with EcoRI and BamHI and inserted into the EcoRI and BamHI sites of vector pUC19. This was used to transform E. coli JM83, and plasmids were recovered from the transformed clones. A VEGF cDNA fragment was cut out of the plasmids with HindIII and EcoRI and then inserted into pIRES2-rsGFP vector to yield pIRES2-rsGFP/VEGF for protein expression.
After overnight culturing of KP-1 human pancreatic cancer cells (3×10^6 cells) with 10% FCS-containing RPMI 1640 medium, an Effectene Transfection Reagent Kit (Qiagen) was used for introduction of 3 μg of pIRES2-rsGFP/VEGF into the KP-1 cells. After culturing in 10% FCS-containing RPMI 1640 medium containing 600 μg/ml of Geneticin, drug-resistant cells were selected. Furthermore, GFP high-expressing cells were collected by cell sorter (Becton Dickinson) as VEGF high-expressing KP-1 cells (KP-1/VEGF).
The KP-1/VEGF cells were prepared to 5×10^5 cells/ml, and 0.5 ml thereof was dispensed into each well of a 24-well plate and cultured at 37° C. for 24 hours. The culture supernatants were collected and the VEGF levels thereof measured using a VEGF measuring kit (IBL Co., Ltd.) for confirmation of high expression.
Millipore rings (Nihon Millipore) were sealed with 0.45 μm Durapore filter membranes (Nihon Millipore) to create chambers. KP-1/VEGF human pancreatic cancer cells (3×10^6) suspended in 0.17 ml of collagen gel were injected into each chamber through the injection port, and the chambers were sealed. Approximately 10 ml of air was then injected in the dorsal skin of 6-week-old C57BL/6N female mice under anesthesia to produce pouches, and the prepared chambers were transplanted therein. About 6 hours after completing transplantation, a test substance suspended in 0.5% methyl cellulose was orally administered (0.1 ml/10 g body weight), and this was continued once a day for the next 4 days.
On the 4th day after transplanting the chambers, 0.2 ml of ^51Cr (Amersham Pharmacia)-labeled mouse erythrocytes (2.5×10^6 cpm/ml) were injected through the caudal veins of each of the mice with the transplanted chambers. After a prescribed period, the skin in contact with the chamber was excised and frozen, the section in direct contact with the chamber was precisely cut off, and the radioactivity was measured with a Y-counter. The blood volume was calculated from the radioactivity and used as an index of the in vivo angiogenesis-inducing activity. The angiogenesis volume was recorded as this measured blood volume minus the blood volume obtained with transplantation of a chamber containing only collagen gel. The experiment was conducted using 10 mice in the control (solvent-administered) group and 5 mice in each compound-administered group.

SMILES	proportion of the angiogenesis amount after administering test substance to that of control (30 mg/kg/day) [%]	proportion of the angiogenesis amount after administering test substance to that of control (100 mg/kg/day) [%]
CNC(=O)n1ccc2cc(Oc3ccnc(NC(=O)N4CCC(N5CCCC5)CC4)c3)ccc21 [Example 46, N1-Methyl-5-(2-(((4-(pyrrolidin-1-yl)piperidin-1-yl)carbonyl)amino)pyridin-4-yloxy)-1H-1-indolecarboxamide]	59.9	43.7
CNC(=O)n1ccc2cc(Oc3ccnc(NC(=O)N4CCC(N5CCCCC5)CC4)c3)ccc21 [Example 47, N1-Methyl-5-(2-(((4-(piperidin-1-yl)piperidin-1-yl)carbonyl)amino)pyridin-4-yloxy)-1H-1-indolecarboxamide]	87.4	39.5
CNC(=O)n1ccc2cc(Oc3ccnc(NC(=O)N4CCOCC4)c3)ccc21 [Example 53, N4-(4-(1-(Methylamino)carbonyl-1H-5-indolyl)oxy-2-pyridyl)-4-morpholinecarboxamide]	43.3	44.4
